The numbers were not newly measured in patent publication US8445278B2, “Process for producing decellularized biological tissues” (Medtronic, Inc., priority 2005, dated 2013), which cites them from elsewhere.

Structures are written as SMILES.

The data set has as its system fresh rat hepatocytes.

As for `CCCCCCCCCCCCOS(=O)(=O)[O-].[Na+]` [SDS, sodium dodecyl sulphate], the IC50 was 49 µM and the “concentration at which SDS is toxic” value is not below 0.01 mM.
